In one experiment the test system is MM.1S cells. The experiment can be described thus: Inhibitory effect on the proliferation of MM.1S, MTS cell viability test. Conditions: multiple myeloma MM.1S cells, 7 days incubation, read-out: Tumor cell inhibitory activity. The experiment is classed as cell-based. Put shortly: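 Viability measured by MTS (OD490 minus OD690 background, 3-4 h) after a 7-day exposure of 20,000 MM.1S cells/well to 5-fold serially diluted compound, 0.2% DMSO final. Inhibition calculated relative to DMSO wells; IC50 curve-fitted, averaged over three repeats.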
In general terms: Tetrazolium dyes change colour on reduction, which living cells bring about.

For a further experiment, the system named is MV-4-11 cells. The experiment can be described thus: Inhibitory effect on the proliferation of MV-4-11 cells, MTS cell viability test. The format is cell-based. Conditions: acute leukemia MV-4-11 cells, 7 days incubation, read-out: Tumor cell inhibitory activity. As for the experimental part:
Method of tumor cell proliferation inhibition test: the inventors tested all the example compounds on hematologic tumor cells, multiple myeloma MMTs cell line and acute leukemia cell MV-4-11 cell line of some examples. The activity test method and results are as follows.
2. The Inhibitory Effect of Compounds on the Proliferation of MV-4-11 Cells, MTS Cell Viability Test: 1). Experimental Method:
MV-4-11 cells were cultured and collected with IMDM and 10% fetal bovine serum. The cell concentration was diluted according to 7 days, and 180 ul of cell suspension was added to each well of a 96-well cell plate to 2000 cells. 20 ul of DMSO with a final concentration of 0.2% was added to the control wells. The compound was diluted 5-fold from the 10 mM stock solution, and 20 ul was also added to the compound cell wells (the final concentration of DMSO was 0.2%). The cells were placed in a 37° C., 5% CO2 incubator and incubated for 7 days. After the reaction solution was prepared according to the MTS kit (Promega, G5430), 20 μL was added to each well, incubated in a 37° C., 5% CO2 incubator for 3-4 h. The 490 nm absorbance value was read with a microtiter plate, and the 690 nm absorbance value was used as the background value. OD490-OD690 was used as the final initial data. The formula for calculating the inhibition rate of the compound was: inhibition rate=(ODDMSO-ODcompound)/(ODDMSO-Oblank)×100%. The compound's proliferation inhibition IC50 was fitted by Graph Pad Prism 5.0. The experiment was repeated three times, and the average and standard deviation was calculated according to three parallel experiments each time.

Among the data in US12459921B2, “Isoindoline compound, preparation method, pharmaceutical composition and use thereof” (SHANGHAI INSTITUTE OF MATERIA MEDICA, CHINESE ACADEMY OF …, priority 2018, dated 2025) are IC50 values, retold here.

Read-outs that look alike come from different tables or passages of the source.

As to `Cc1nc2cccc(N)c2c(=O)n1C1CCC(=O)NC1=O` (stereo not drawn) [CC-122, reference compound], the IC50 was below 100 nM with MM.1S cells (Homo sapiens, MM1.S, 168 h) and above 20000 nM with MV-4-11 cells (Homo sapiens, MV4-11, 168 h).

For `O=C1CCC(N2Cc3c(OCc4ccc(CN5CCOCC5)cc4)cccc3C2=O)C(=O)N1` (stereo not drawn) [CC-220, reference compound], the IC50 with MM.1S cells (Homo sapiens, MM1.S, 168 h) is below 100 nM; with MV-4-11 cells (Homo sapiens, MV4-11, 168 h) it was above 20000 nM.

Regarding `O=C1CCC(N2Cc3c(CCCCCN4CCC(c5noc6cc(F)ccc56)CC4)cccc3C2=O)C(=O)N1` (stereo not drawn) [Example 22, 3-(4-(5-(4-(6-fluorobenzo[d]isoxazole-3-)piperidine-1-)pentyl)-1-oxoisoindoline-2-)piperidine-2,6-dione], the IC50 with MM.1S cells is below 100 nM; in the experiment on MV-4-11 cells, 110 nM.

With `N#CC1(c2cccc(Cl)c2)CCN(CCCCCc2cccc3c2CN(C2CCC(=O)NC2=O)C3=O)CC1` (stereo not drawn) [Example 51, 4-(3-chlorophenyl)-1-(5-(2-(2,6-dioxopiperidine-3-)-1-oxoisoindoline-4-)pentyl) piperidine-4-carbonitrile], the IC50 was below 100 nM in the experiment on MM.1S cells (Homo sapiens, MM1.S, 168 h) and 570 nM in the experiment on MV-4-11 cells (Homo sapiens, MV4-11, 168 h).

For `O=C1CCC(N2Cc3c(CCCCCN4CCc5ccccc54)cccc3C2=O)C(=O)N1` (stereo not drawn) [Example 107, 3-(4-(5-(indoline-1-)pentyl)-1-oxoisoindoline-2-)piperidine-2,6-dione], the IC50 with MM.1S cells (Homo sapiens, MM1.S, 168 h) is below 100 nM; in the experiment on MV-4-11 cells (Homo sapiens, MV4-11, 168 h), 180 nM.

As to `N#CC1(c2ccc(Cl)c(Cl)c2)CCN(CCCCc2cccc3c2CN(C2CCC(=O)NC2=O)C3=O)CC1` (stereo not drawn) [Example 272, 4-(3,4-dichlorophenyl)-1-(4-(2-(2,6-dioxopiperidin-3-yl)-1-oxoisoindoline-4-yl)butyl)piperidine-4-carbonitrile], the IC50 in the experiment on MM.1S cells (Homo sapiens, MM1.S, 168 h) is 100 to 1000 nM.

As for `O=C1CCC(N2Cc3c(CCCCCN4CCC5(CC4)OCc4cc(F)ccc45)cccc3C2=O)C(=O)N1` (stereo not drawn) [Example 273, 3-(4-(5-(5-fluoro-3H-spiro[isobenzofuran-1,4′-piperidine]-1′-)pentyl)-1-oxoisoindoline-2-yl)piperidine-2,6-dione], the IC50 in the experiment on MM.1S cells (Homo sapiens, MM1.S, 168 h) lay within 100 to 1000 nM.

Turning to `O=C1CCC(N2Cc3c(CCCCCN4CCC5(CC4)OCc4cc(Cl)ccc45)cccc3C2=O)C(=O)N1` (stereo not drawn) [Example 274, 3-(4-(5-(5-chloro-3H-spiro[isobenzofuran-1,4′-piperidin]-1-yl)pentyl)-1-oxoisoindoline-2-yl)piperidine-2,6-dione], the IC50 in the experiment with MM.1S cells (Homo sapiens, MM1.S, 168 h) was 100 to 1000 nM.

As to `O=C1CCC(N2Cc3c(CCCCCN4CCC5(CC4)C(=O)Nc4cccc(Cl)c45)cccc3C2=O)C(=O)N1` (stereo not drawn) [Example 276, 3-(4-(5-(4-chloro-2-oxospiro[dihydroindole-3,4-piperidin]-1-yl)pentyl)-1-oxoisoindoline-2-yl)piperidine-2,6-dione], the IC50 with MM.1S cells (Homo sapiens, MM1.S, 168 h) was in the range of 100 to 1000 nM.

Turning to `O=C1CCC(N2Cc3c(CCCCCN4CCC5(CC4)OC(=O)Nc4ccc(Cl)cc45)cccc3C2=O)C(=O)N1` (stereo not drawn) [Example 277, 3-(4-(5-(6-chloro-2-oxo-1,2-dihydrospiro[benzo[1,3]oxazine-4,4′-piperidine]-1′-yl)pentyl)-1-oxoisoindolin-2-yl)piperidine-2,6-dione], in the experiment on MM.1S cells (Homo sapiens, MM1.S, 168 h), the IC50 fell in the range of 100 to 1000 nM.

For the molecule `O=C1CCC(N2Cc3c(CCCCCN4CCC5(CC4)C(=O)Nc4ccc(F)cc45)cccc3C2=O)C(=O)N1` (stereo not drawn) [Example 278], in the experiment on MM.1S cells (Homo sapiens, MM1.S, 168 h), the IC50 lay within 100 to 1000 nM.

For the molecule `O=C1CCC(N2Cc3c(CCCCCN4CCC5(CC4)C(=O)Nc4c(Cl)cccc45)cccc3C2=O)C(=O)N1` (stereo not drawn) [Example 279, 3-(4-(5-(7-chloro-2-oxospiro[dihydroindole-3,4-piperidin]-1-yl)pentyl)-1-oxoisoindoline-2-yl)piperidine-2,6-dione], the IC50 in the experiment on MM.1S cells (Homo sapiens, MM1.S, 168 h) lay in the range of 100 to 1000 nM.

Regarding `O=C1CCC(N2Cc3c(CCCCCN4CCC5(CC4)OCc4c(Cl)cccc45)cccc3C2=O)C(=O)N1` (stereo not drawn) [Example 280, 3-(4-(5-(4-chloro-3H-spiro[isobenzofuran-1,4′-piperidin]-1-yl)pentyl)-1-oxoisoindoline-2-yl)piperidine-2,6-dione], in the experiment with MM.1S cells (Homo sapiens, MM1.S, 168 h), the IC50 is 100 to 1000 nM.
